Laboratory results published in patent US8071612B2, “6-alkenyl and 6-phenylalkyl substituted 2-quinolinones and 2-quinoxalinones as poly(ADP-ribose) polymerase inhibitors” (Janssen Pharmaceutica, NV, priority 2004, dated 2011).

Legend:
[1] = test system: infarct size in the heart; conditions: rabbits, cited from earlier work
colitis = conditions: rats, colitis by intraluminal trinitrobenzene sulfonic acid in 50% ethanol; cited from earlier work
PARP-1 enzyme [2] = molecular target: T1, PARP-1 enzyme (Homo sapiens, UniProt P09874); experiment: In vitro filtration assay for PARP-1 inhibitory activity; assay type: biochemical; conditions: nicked DNA activated PARP-1, [32P]-NAD, histones; read-out: In vitro filtration assay pIC50 (converted)
T1 construct: made in house
T1 sequence (P09874 whole entry): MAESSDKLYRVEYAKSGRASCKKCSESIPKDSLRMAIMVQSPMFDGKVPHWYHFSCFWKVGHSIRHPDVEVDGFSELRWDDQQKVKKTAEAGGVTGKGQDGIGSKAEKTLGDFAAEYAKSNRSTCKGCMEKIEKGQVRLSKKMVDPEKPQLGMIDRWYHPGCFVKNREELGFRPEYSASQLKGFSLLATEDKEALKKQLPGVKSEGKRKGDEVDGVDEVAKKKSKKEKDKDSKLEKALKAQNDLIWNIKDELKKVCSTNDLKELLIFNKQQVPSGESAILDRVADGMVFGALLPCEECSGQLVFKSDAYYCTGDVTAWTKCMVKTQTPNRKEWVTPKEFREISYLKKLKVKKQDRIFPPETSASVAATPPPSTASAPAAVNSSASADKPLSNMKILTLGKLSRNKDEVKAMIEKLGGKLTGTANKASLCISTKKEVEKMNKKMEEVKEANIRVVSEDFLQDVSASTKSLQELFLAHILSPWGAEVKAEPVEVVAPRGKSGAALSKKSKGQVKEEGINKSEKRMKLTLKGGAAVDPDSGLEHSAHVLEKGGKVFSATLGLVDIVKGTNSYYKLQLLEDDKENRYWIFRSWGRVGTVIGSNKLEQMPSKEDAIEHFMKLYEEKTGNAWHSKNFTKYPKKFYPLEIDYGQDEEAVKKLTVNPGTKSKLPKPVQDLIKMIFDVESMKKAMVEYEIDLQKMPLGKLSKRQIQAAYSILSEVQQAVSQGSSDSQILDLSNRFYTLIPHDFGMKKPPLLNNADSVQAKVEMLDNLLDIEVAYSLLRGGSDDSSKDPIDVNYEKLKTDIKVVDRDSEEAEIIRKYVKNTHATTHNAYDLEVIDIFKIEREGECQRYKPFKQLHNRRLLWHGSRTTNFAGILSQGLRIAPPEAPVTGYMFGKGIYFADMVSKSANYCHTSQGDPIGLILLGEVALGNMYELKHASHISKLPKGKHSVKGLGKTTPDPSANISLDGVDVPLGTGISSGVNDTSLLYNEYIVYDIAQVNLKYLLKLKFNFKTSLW
Procedure: Compounds of the present invention were tested in an in vitro filtration assay assessing PARP-1 activity (triggered in the presence of nicked DNA) by means of its histone poly (ADP-ribosyl)ation activity using [^32P]-NAD as ADP-ribosyl donor. The radioactive ribosylated histones were precipitated by trichloroacetic acid (TCA) in 96-well filterplates and the incorporated [^32P] measured using a scintillation counter
A mixture of histones (stock solution: 5 mg/ml in H2O), NAD (stock solution: 100 mM in H2O), and [^32P]-NAD^+ in incubation buffer (50 mM Tris/HCl, pH 8; 0.2 mM DTT; 4 mM MgCl2) was made. A mixture of the PARP-1 enzyme (5-10 μg/ml) and nicked DNA was also made. The nicked DNA was prepared as described in the in vitro SPA for PARP-1 inhibitory activity. Seventy-five μl of the PARP-1 enzyme/DNA mixture together with 1 μl of compound in DMSO and 25 μl of histones-NAD^+/[^32P]-NAD^+ mixture was added per well of a 96-well filterplate (0.45 μm, supplier Millipore). The final concentrations in the incubation mixture were 2 μg/ml for the histones, 0.1 mM for the NAD^+, […] (0.5 μC) for the [^32P]-NAD^+ and 2 μg/ml for the nicked DNA. Plates were incubated for 15 min. at room temperature and the reaction was terminated by the addition of 10 μl ice cold 100% TCA followed by the addition of 10 μl ice-cold BSA solution (1% in H2O). The protein fraction was allowed to precipitate for 10 min. at 4° C. and plates were vacuum filtered. The plates were subsequently washed with, for each well, 1 ml of 10% ice cold TCA, 1 ml of 5% ice cold TCA and 1 ml of 5% TCA at room temperature. Finally 100 μl of scintillation solution (Microscint 40, Packard) was added to each well and the plates were transferred to a TopCountNXT™ (supplier: Packard) for scintillation counting and values were expressed as counts per minute (cpm). For each experiment, controls (containing PARP-1 enzyme and DMSO without compound), a blank incubation (containing DMSO but no PARP-1 enzyme or compound) and samples (containing PARP-1 enzyme and compound dissolved in DMSO) were run in parallel. All compounds tested were dissolved and eventually further diluted in DMSO. In first instance, compounds were tested at a concentration of 10^−5M. […] In each test, the blank value was subtracted from both the control and the sample values. The control sample represented maximal PARP-1 enzyme activity. For each sample, the amount of cpm was expressed as a percentage of the mean cpm value of the controls. When appropriate, IC50-values (concentration of the drug, needed to reduce the PARP-1 enzyme activity to 50% of the control) were computed using linear interpolation between the experimental points just above and below the 50% level. Herein the effects of test compounds are expressed as pIC50 (the negative log value of the IC50-value). As a reference compound, 4-amino-1,8-naphthalimide was included to validate the filtration assay.

PARP-1 enzyme [3] = molecular target: T1, PARP-1 enzyme; experiment: In vitro Scintillation Proximity Assay (SPA) for PARP-1 inhibitory activity; assay type: biochemical; conditions: nicked DNA activated PARP-1, [3H]-NAD+, biotinylated histones; read-out: In vitro SPA pIC50 (converted)
Procedure, shortened: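 Human PARP-1 (5–10 μg/ml), activated by nicked DNA (2 μg/ml), ADP-ribosylated biotinylated histones (2 μg/ml) using [3H]-NAD+ as donor for 15 min at room temperature in Tris pH 8/DTT/MgCl2. The reaction was stopped with NAD+ (2 mM final) and read by SPA scintillation counting. IC50 was interpolated from blank-corrected % of control and reported as pIC50.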

SMILES	melting point [°C]	IC50 (PARP-1 enzyme [2]) [nM]	IC50 (PARP-1 enzyme [3]) [nM]	reduction in infarct size ([1]; single injection 1 mg/kg)	effect on inflammatory response, morphology and energetic status of the distal colon (colitis)	reduction in infarct size in the heart ([1]; single injection 10 mg/kg, one minute before occlusion or one minute before reperfusion)
CCc1cc2cc([C@@H](CCN3CCCCC3)c3ccc4c(c3)OCCO4)ccc2[nH]c1=O (single isomer, unassigned) [Compound 144]	159	–	–	–	–	–
CCc1cc2cc([C@H](CCN3CCCCC3)c3ccc4c(c3)OCCO4)ccc2[nH]c1=O (single isomer, unassigned) [Compound 145]	172	–	–	–	–	–
Oc1cccc2c(O)nccc12 [1,5-dihydroxyisoquinoline]	–	–	–	38-48%	–	–
NC(=O)c1cccc(N)c1 [3-amino-benzamide]	–	–	–	–	reduced the inflammatory response and restored the morphology and the energetic status of the distal colon	32-42%
CCc1cc2cc(C(=O)c3ccc4c(c3)OCCO4)ccc2[nH]c1=O [Compound 2]	255	–	735	–	–	–
Cc1cc2cc(C(c3ccccc3)N(C)C)ccc2[nH]c1=O (centres unmarked) [Compound 6]	226.7	3940	957	–	–	–
CC(=O)NCC(c1ccccc1)c1ccc2[nH]c(=O)c(C)cc2c1 (centres unmarked) [Compound 8]	206.2	2540	213	–	–	–
COCCNC1CCN(C(c2ccc3c(c2)OCCO3)c2ccc3[nH]c(=O)c4ccccc4c3c2)CC1 (centres unmarked) [Compound 11]	116	–	7.29	–	–	–
CCc1cc2cc(C(c3ccc4c(c3)OCCO4)C3CCN(C/C=C/c4ccccc4)CC3)ccc2[nH]c1=O (centres unmarked) [Compound 14]	107	–	97.1	–	–	–
CCc1cc2cc(C(CCN3CCCCC3)c3ccc4c(c3)OCCO4)ccc2[nH]c1=O (centres unmarked) [Compound 16]	181	–	9.2	–	–	–
CCc1cc2cc(C(=C3CCNCC3)c3ccc4c(c3)OCCO4)ccc2[nH]c1=O [Compound 131]	249	–	27.7	–	–	–
CCc1cc2cc(C(=C3CCN(CCc4ccc(OC)cc4)CC3)c3ccc4c(c3)OCCO4)ccc2[nH]c1=O [Compound 132]	203	–	57.1	–	–	–
CCc1cc2cc(C(=C3CCN(CC(O)COc4ccc(OC)cc4)CC3)c3ccc4c(c3)OCCO4)ccc2[nH]c1=O (centres unmarked) [Compound 133]	219	–	124	–	–	–
Cc1cc2cc(/C(=C3\CCCN(C)C3)c3ccccc3)ccc2[nH]c1=O [Compound 134]	–	1560	299	–	–	–
Cc1cc2cc(/C(=C/CN(C)C)c3cccc4[nH]c(=O)c(C)cc34)ccc2[nH]c1=O [Compound 135]	–	4180	794	–	–	–
CCc1cc2cc(/C(=C/CN(C)C)c3ccccc3)ccc2[nH]c1=O [Compound 139]	–	4120	668	–	–	–
CCc1cc2cc(/C(=C\CN(C)C)c3ccccc3)ccc2[nH]c1=O [Compound 140]	–	2150	431	–	–	–

Second part, led by results:

melting point [°C]	IC50 (PARP-1 enzyme [2]) [nM]	IC50 (PARP-1 enzyme [3]) [nM]	SMILES	reduction in infarct size ([1]; single injection 1 mg/kg)	effect on inflammatory response, morphology and energetic status of the distal colon (colitis)	reduction in infarct size in the heart ([1]; single injection 10 mg/kg, one minute before occlusion or one minute before reperfusion)
240	–	–	Cc1cc2cc(C(c3ccccc3)c3cncn3C)ccc2[nH]c1=O (centres unmarked) (hydrate or solvate) [Compound 10]	–	–	–
174.3	2330	285	CNC(c1ccccc1)c1ccc2[nH]c(=O)c(C)cc2c1 (centres unmarked) [Compound 1]	–	–	–
168.2	4340	407	CCc1cc2cc(C(OC(C)=O)c3ccccc3)ccc2[nH]c1=O (centres unmarked) [Compound 3]	–	–	–
227.5	2670	435	Cc1cc2cc(C(C#N)c3ccccc3)ccc2[nH]c1=O (centres unmarked) [Compound 4]	–	–	–
254.2	9440	1400	Cc1cc2cc(C(c3ccccc3)n3cncn3)ccc2[nH]c1=O (centres unmarked) [Compound 5]	–	–	–
207.3	9400	1800	COC(c1ccccc1)c1ccc2[nH]c(=O)c(C)cc2c1 (centres unmarked) [Compound 9]	–	–	–
211	–	40.1	CCc1cc2cc(C(O)c3ccc4c(c3)OCO4)ccc2[nH]c1=O (centres unmarked) [Compound 12]	–	–	–
220.1	619	152	CCc1cc2cc(C(c3ccccc3)n3ccnc3)ccc2[nH]c1=O (centres unmarked) [Compound 17]	–	–	–
> 260	–	19.5	CCc1cc2cc(C(NC=O)c3ccc4c(c3)OCCO4)ccc2[nH]c1=O (centres unmarked) [Compound 18]	–	–	–
204	–	256	CCc1nc2cc(CC(O)c3ccc(Cl)cc3)ccc2[nH]c1=O (centres unmarked) [Compound 19]	–	–	–
270	1750	275	CCc1nc2cc(CC(c3ccc(Cl)cc3)n3ccnc3)ccc2[nH]c1=O (centres unmarked) [Compound 20]	–	–	–
194	–	191	CCc1nc2cc(CC(c3ccc(Cl)cc3)N3CCCC3)ccc2[nH]c1=O (centres unmarked) [Compound 21]	–	–	–
188	4050	366	CCc1nc2cc(C(c3ccc(Cl)cc3)n3cncn3)ccc2[nH]c1=O (centres unmarked) [Compound 22]	–	–	–
–	5930	556	CCc1nc2cc(CC(=O)c3ccc(Cl)cc3)ccc2[nH]c1=O [Compound 113]	–	–	–
–	1580	552	CCc1nc2cc(CC(c3ccc(Cl)cc3)N3CCCCC3)ccc2[nH]c1=O (centres unmarked) [Compound 114]	–	–	–
–	3440	818	CCc1nc2cc(C(c3cccc(F)c3)n3ccnc3)ccc2[nH]c1=O (centres unmarked) [Compound 115]	–	–	–
–	2700	877	CCc1nc2cc(C(c3ccc(Cl)cc3)n3cnc(C)c3)ccc2[nH]c1=O (centres unmarked) [Compound 122]	–	–	–
–	3300	612	CCc1nc2cc(C(c3cccc(Cl)c3)n3ccnc3)ccc2[nH]c1=O (centres unmarked) [Compound 123]	–	–	–
–	1380	1570	CCc1nc2cc(C(c3ccc(Cl)cc3)N3CCCCC3)ccc2[nH]c1=O (centres unmarked) [Compound 124]	–	–	–
–	5610	711	CCc1nc2cc(C(c3ccc(F)cc3)n3ccnc3)ccc2[nH]c1=O (centres unmarked) [Compound 125]	–	–	–
–	2250	573	CCc1nc2cc(C(c3ccc(Cl)cc3)n3ccnc3)ccc2[nH]c1=O (centres unmarked) [Compound 126]	–	–	–
–	3660	1110	CCc1nc2cc(C(c3ccccc3)n3ccnc3)ccc2[nH]c1=O (centres unmarked) [Compound 127, 3-ethyl-6-(1H-imidazol-1-ylphenylmethyl)-2(1H)-quinoxalinone]	–	–	–
–	2300	361	COc1ccc(C(c2ccc3[nH]c(=O)c(C)nc3c2)n2ccnc2)cc1 (centres unmarked) [Compound 128, 6-[(1H-imidazol-1-yl)(4-methoxyphenyl)methyl]-3-methyl-2(1H)-quinoxalinone]	–	–	–
